Data: patent publication US10851097B2, “4,5,6,7-tetrahydro-1H-imidazo[4,5-c]pyridine and 1,4,5,6,7,8-hexahydroimidazo[4,5-d]azepine derivatives as janus kinase inhibitors” (Topivert Pharma Limited, priority 2015, dated 2020)

Each compound was assayed on CD3/IL2 stimulated PBMC cells (assay: IFNγ release from CD3/IL2 stimulated PBMC cells (assay (a))). Conditions: Homo sapiens, CD3/IL2 stimulation, 48 h, ELISA.
Type: cell-based
Protocol: (a) IFNγ Release from CD3/IL2 Stimulated PBMC Cells
PBMCs from healthy subjects are separated from whole blood using a density gradient (Lymphoprep, Axis-Shield Healthcare). Cells are added to a 96 well plate, and compound at the desired concentration added 2 hours prior to stimulation with a mixture of monoclonal antibody to CD3 (1 μg/ml, eBioscience) and human recombinant IL2 (10 ng/ml, Peprotech). After 48 hours incubation under normal tissue culture conditions, supernatants are collected and IFNγ release determined by Sandwich ELISA (Duo-set, R&D System). The IC50 is determined from the dose response curve.

Going from CCc1cc(O)c(F)cc1-c1ccc2c(-c3nc4c([nH]3)CCN(C(=O)c3cnc(N(C)Cc5ccccn5)cn3)C4)n[nH]c2c1 [Example 2(c), (2-(6-(2-ethyl-5-fluoro-4-hydroxyphenyl)-1H-indazol-3-yl)-1,4,6,7-tetrahydro-5H-imidazo[4,5-c]pyridin-5-yl)(5-(methyl(pyridin-2-ylmethyl)amino)pyrazin-2-yl)methanone] to CCc1cc(O)c(F)cc1-c1ccc2c(-c3nc4c([nH]3)CCN(C(=O)c3cnc(N(C)CCCC(=O)O)cn3)C4)n[nH]c2c1 [Example 2(a), 4-((5-(2-(6-(2-ethyl-5-fluoro-4-hydroxyphenyl)-1H-indazol-3-yl)-4,5,6,7-tetrahydro-1H-imidazo[4,5-c]pyridine-5-carbonyl)pyrazin-2-yl)(methyl)amino)butanoic acid], the IC50 rises from 37 nM to 732 nM (20-fold). The first is the more potent here.

First: CCc1cc(O)c(F)cc1-c1ccc2c(-c3nc4c([nH]3)CCN(C(=O)c3cnc(NCCN5CCCC5=O)cn3)C4)n[nH]c2c1 [Example 2(r), 1-(2-((5-(2-(6-(2-ethyl-5-fluoro-4-hydroxyphenyl)-1H-indazol-3-yl)-4,5,6,7-tetrahydro-1H-imidazo[4,5-c]pyridine-5-carbonyl)pyrazin-2-yl)amino)ethyl)pyrrolidin-2-one]
Second: CCc1cc(O)c(F)cc1-c1ccc2c(-c3nc4c([nH]3)CCN(C(=O)c3cnc(NCCN5CC[S+]([O-])CC5)cn3)C4)n[nH]c2c1 [Example 2(d), (2-(6-(2-ethyl-5-fluoro-4-hydroxyphenyl)-1H-indazol-3-yl)-1,4,6,7-tetrahydro-5H-imidazo[4,5-c]pyridin-5-yl)(5-((2-(1-oxidothiomorpholino)ethyl)amino)pyrazin-2-yl)methanone]
The IC50 of the first is 3-fold lower: 90.8 nM for the first, 270 nM for the second. The first is the more potent here.

Going from CCc1cc(O)c(F)cc1-c1ccc2c(-c3nc4c([nH]3)CCN(C(=O)c3cnc(N(CCO)CCO)cn3)C4)n[nH]c2c1 [Example 2(p), (5-(bis(2-hydroxyethyl)amino)pyrazin-2-yl)(2-(6-(2-ethyl-5-fluoro-4-hydroxyphenyl)-1H-indazol-3-yl)-6,7-dihydro-1H-imidazo[4,5-c]pyridin-5(4H)-yl)methanone] to CCc1cc(O)c(F)cc1-c1ccc2c(-c3nc4c([nH]3)CCN(C(=O)c3cnc(N(C)CCN5CCOC5=O)cn3)C4)n[nH]c2c1 [Example 2(u), 3-(2-((5-(2-(6-(2-ethyl-5-fluoro-4-hydroxyphenyl)-1H-indazol-3-yl)-4,5,6,7-tetrahydro-1H-imidazo[4,5-c]pyridine-5-carbonyl)pyrazin-2-yl)(methyl)amino)ethyl)oxazolidin-2-one], the IC50 falls from 154 nM to 73.8 nM (2.1-fold).

Going from CCc1cc(O)c(F)cc1-c1ccc2c(-c3nc4c([nH]3)CCN(C(=O)c3cnc(NCCC5(O)CCN(C)CC5)cn3)C4)n[nH]c2c1 [Example 2(g), (2-(6-(2-ethyl-5-fluoro-4-hydroxyphenyl)-1H-indazol-3-yl)-1,4,6,7-tetrahydro-5H-imidazo[4,5-c]pyridin-5-yl)(5-((2-(4-hydroxy-1-methylpiperidin-4-yl)ethyl)amino)pyrazin-2-yl)methanone] to CCc1cc(O)c(F)cc1-c1ccc2c(-c3nc4c([nH]3)CCN(C(=O)c3cnc(N5C[C@@H]6C(=O)NC(=O)[C@@H]6C5)cn3)C4)n[nH]c2c1 [Example 2(w), (3aR,6aS)-5-(5-(2-(6-(2-ethyl-5-fluoro-4-hydroxyphenyl)-1H-indazol-3-yl)-4,5,6,7-tetrahydro-1H-imidazo[4,5-c]pyridine-5-carbonyl)pyrazin-2-yl)tetrahydropyrrolo[3,4-c]pyrrole-1,3(2H,3aH)-dione], the IC50 rises from 271 nM to 942 nM (3.5-fold).

In the case of CCc1cc(O)c(F)cc1-c1ccc2c(-c3nc4c([nH]3)CCN(C(=O)c3cnc(N5C[C@H](O)[C@@H](O)[C@H](O)[C@H]5CO)cn3)C4)n[nH]c2c1 (stereo in doubt) [Example 2(s), (2-(6-(2-ethyl-5-fluoro-4-hydroxyphenyl)-1H-indazol-3-yl)-6,7-dihydro-1H-imidazo[4,5-c]pyridin-5(4H)-yl)(5-((2R,3R,4R,5S)-3,4,5-trihydroxy-2-(hydroxymethyl)piperidin-1-yl)pyrazin-2-yl)methanone], the IC50 is reported as 694 nM.
